Like-named read-outs stand apart in the source and are kept apart here.
Legend:
[1] = system: phospho-AKT in RAJI cells (PI3Kδ); assay: PI3Kδ selective assay, phospho-AKT in RAJI cells; type: cell-based; conditions: RAJI cells stimulated with anti-human IgM; read-out: IC50 for phospho-AKT, RAJI cell model
From the text: A compound's ability in selectively inhibiting PI3Kδ can be assessed using RAJI cells, i.e., B lymphocyte cells derived from lymphoma patients. Briefly, serum-starved RAJI cells are stimulated with anti-human IgM, thereby causing signaling through the B-cell receptors, as described in, for example, He et al., Leukemia Research (2009) 33: 798-802. B-cell receptor signaling is important for the activation, differentiation, and survival of B cells and certain B-cell derived cancers. Reduction of phospho-AKT is indicative of compounds that may inhibit B-cell proliferation and function in certain diseases. By monitoring the reduction of phospho-AKT in stimulated RAJI cells (using for example, phospho-AKT antibodies), a compound's potential efficacy in selectively inhibiting PI3Kδ can be assessed.

[2] = system: phospho-AKT in RAW 264.7 cells (PI3Kγ); assay: PI3Kγ selective assay, phospho-AKT in RAW 264.7 cells; type: cell-based; conditions: Mus musculus, RAW264.7, stimulated with C5a, read-out: IC50 for phospho-AKT, RAW 264.7 cell model
From the text: A compound's ability in selectively inhibiting PI3Kγ can be assessed using RAW264.7 macrophages. Briefly, serum-starved PAW264.7 cells are stimulated with a known GPCR agonist C5a. (See, e.g., Camps et al., Nature Medicine (2005) 11(9): 936-943). Cells can be treated with test compounds prior to, simultaneously with, or subsequent to the stimulation by C5a. RAW 264.7 cells respond to the complement component fragment C5a through activation of the C5a receptor, and the C5a receptor activates macrophages and induces cell migration. Test compounds' ability to inhibit C5a-mediated AKT phosphorylation is indicative of selective inhibition of PI3Kγ. Thus, by monitoring the reduction of phospho-AKT in stimulated RAW 264.7 cells (using for example, phospho-AKT antibodies), a compound's potential efficacy in selectively inhibiting PI3Kγ can be assessed.

PI3Kα = molecular target: T1, PI3Kα (Homo sapiens, UniProt P42336); assay: PI3-Kinase HTRF assay, PI3Kα; type: biochemical; conditions: bins Greater than 10 μM and Greater than 1 μM to 10 μM; 10 μM ATP, PIP2 at 10 μM; read-out: IC50 P13Kα
T1 construct: purchased Millipore Corporation 14-602-K
T1 sequence (P42336 whole entry): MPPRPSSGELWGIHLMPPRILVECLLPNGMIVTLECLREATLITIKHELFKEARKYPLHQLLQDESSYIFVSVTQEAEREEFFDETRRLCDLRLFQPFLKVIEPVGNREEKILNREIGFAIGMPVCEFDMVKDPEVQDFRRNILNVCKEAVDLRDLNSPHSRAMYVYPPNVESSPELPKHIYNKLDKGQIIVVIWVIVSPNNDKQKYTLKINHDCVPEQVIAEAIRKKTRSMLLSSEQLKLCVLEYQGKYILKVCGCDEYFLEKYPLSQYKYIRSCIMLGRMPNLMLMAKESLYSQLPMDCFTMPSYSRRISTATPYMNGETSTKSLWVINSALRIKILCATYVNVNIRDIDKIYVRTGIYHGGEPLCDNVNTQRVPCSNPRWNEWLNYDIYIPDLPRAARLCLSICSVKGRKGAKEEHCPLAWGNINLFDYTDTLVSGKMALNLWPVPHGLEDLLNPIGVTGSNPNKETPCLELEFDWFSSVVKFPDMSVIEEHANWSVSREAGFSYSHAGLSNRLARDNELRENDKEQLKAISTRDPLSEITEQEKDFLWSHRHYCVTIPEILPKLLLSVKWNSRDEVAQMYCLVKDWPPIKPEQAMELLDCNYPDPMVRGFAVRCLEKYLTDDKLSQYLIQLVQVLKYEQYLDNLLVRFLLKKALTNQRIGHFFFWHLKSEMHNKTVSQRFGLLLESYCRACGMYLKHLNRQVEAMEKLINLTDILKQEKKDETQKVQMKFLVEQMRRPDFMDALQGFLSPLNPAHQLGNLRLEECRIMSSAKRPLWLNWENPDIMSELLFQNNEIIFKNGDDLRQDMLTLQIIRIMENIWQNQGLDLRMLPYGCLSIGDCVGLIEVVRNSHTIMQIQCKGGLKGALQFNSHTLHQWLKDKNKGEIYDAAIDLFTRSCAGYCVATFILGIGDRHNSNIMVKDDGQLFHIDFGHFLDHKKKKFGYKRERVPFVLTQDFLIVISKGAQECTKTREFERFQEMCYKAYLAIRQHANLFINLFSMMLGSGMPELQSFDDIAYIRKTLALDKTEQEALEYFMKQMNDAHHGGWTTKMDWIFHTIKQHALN
T1 sequence (P27986 whole entry partner): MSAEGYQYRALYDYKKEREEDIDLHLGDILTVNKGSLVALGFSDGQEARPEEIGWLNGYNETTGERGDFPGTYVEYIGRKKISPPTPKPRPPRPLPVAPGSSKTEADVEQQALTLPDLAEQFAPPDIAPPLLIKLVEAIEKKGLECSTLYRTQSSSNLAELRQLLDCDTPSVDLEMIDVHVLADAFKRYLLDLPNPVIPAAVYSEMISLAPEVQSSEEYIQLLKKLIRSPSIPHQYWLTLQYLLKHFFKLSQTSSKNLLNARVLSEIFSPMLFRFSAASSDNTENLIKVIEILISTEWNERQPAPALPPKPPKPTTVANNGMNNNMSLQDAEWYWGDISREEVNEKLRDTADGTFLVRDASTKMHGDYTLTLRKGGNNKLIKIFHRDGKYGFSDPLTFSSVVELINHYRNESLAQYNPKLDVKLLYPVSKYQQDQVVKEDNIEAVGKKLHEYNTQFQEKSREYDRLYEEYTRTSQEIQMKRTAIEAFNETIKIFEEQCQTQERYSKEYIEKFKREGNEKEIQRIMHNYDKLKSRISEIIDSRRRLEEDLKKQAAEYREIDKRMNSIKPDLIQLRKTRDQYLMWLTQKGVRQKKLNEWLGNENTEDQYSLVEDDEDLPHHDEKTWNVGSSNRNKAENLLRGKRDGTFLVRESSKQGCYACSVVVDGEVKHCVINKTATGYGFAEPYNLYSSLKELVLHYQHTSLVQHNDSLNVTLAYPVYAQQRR
In short: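 Competitive time-resolved FRET readout of PIP3 formed from 10 μM PIP2 with 10 μM ATP, 1 h at room temperature, by each recombinant human isoform (α, β, γ, δ; 0.25-0.3 μg/ml). Compound (2% DMSO final) was preincubated 15 min with enzyme and substrate; IC50 fitted over 20 μM–0.1 nM, 12 points.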

Balb/c splenic B cells = assay: B cell activation and proliferation assay; type: cell-based; conditions: Mus musculus, column bins 1 μM to 100 nM (given as 100-1000) and Less than 100 nM, read-out: B cell proliferation EC50
In short: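 Read-out is metabolic activity by Alamar Blue reduction (5 h, 560Ex/590Em) after 72 h at 37° C, reported as IC50 or EC50. Compound (0.2% DMSO) was added 30 min before a cocktail holding 10 μg/ml LPS or 5 μg/ml F(ab′)2 anti-IgM with 2 ng/ml mouse IL4. Cells were purified Balb/c splenic B cells, 50.000 per well.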

PI3Kβ = molecular target: T2, PI3Kβ (Homo sapiens, UniProt P42338); assay: PI3-Kinase HTRF assay, PI3Kβ; type: biochemical; conditions: bins Greater than 10 μM and Greater than 1 μM to 10 μM; 10 μM ATP, PIP2 at 10 μM
T2 construct: purchased Millipore Corporation 14-603-K
T2 sequence (P42338 whole entry): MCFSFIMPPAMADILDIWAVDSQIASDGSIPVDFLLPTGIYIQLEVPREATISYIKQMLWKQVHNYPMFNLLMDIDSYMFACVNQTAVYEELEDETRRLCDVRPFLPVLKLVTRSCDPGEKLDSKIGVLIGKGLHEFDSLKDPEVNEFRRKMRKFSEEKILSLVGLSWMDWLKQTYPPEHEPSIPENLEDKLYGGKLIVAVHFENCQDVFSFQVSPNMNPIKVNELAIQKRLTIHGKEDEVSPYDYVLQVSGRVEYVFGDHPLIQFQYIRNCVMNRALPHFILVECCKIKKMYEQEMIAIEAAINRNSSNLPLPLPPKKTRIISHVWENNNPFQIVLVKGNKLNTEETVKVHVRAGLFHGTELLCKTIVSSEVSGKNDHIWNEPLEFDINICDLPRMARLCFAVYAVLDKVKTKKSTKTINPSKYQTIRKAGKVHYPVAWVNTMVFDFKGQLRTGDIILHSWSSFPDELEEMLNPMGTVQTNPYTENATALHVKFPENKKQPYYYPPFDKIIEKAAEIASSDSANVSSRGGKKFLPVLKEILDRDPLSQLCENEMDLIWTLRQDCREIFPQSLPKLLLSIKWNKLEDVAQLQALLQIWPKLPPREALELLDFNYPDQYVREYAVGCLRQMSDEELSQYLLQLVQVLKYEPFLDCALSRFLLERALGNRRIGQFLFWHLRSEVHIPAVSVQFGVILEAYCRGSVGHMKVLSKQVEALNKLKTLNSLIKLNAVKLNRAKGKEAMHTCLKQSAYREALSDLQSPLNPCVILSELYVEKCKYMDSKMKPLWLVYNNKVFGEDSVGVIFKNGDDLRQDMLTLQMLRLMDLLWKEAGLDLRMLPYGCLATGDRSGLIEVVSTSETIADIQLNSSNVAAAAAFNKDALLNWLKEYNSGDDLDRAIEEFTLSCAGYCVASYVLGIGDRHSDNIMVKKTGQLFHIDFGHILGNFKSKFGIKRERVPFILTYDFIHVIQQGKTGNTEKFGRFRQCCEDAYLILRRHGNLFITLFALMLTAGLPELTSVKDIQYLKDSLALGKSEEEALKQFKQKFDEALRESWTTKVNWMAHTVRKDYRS
T2 sequence (P27986 whole entry partner): as the sequence (P27986 whole entry partner) above
From the text: A PI3-Kinase HTRF® assay kit (cat No. 33-016) purchased from Millipore Corporation was used to screen compounds provided herein. This assay used specific, high affinity binding of the GRPI pleckstrin homology (PH) domain to PIP3, the product of a Class 1A or 1B PI3 Kinase acting on its physiological substrate PIP2. During the detection phase of the assay, a complex was generated between the GST-tagged PH domain and biotinylated short chain PIP3. The biotinylated PIP3 and the GST-tagged PH domain recruited fluorophores (Streptavidin-Allophycocyanin and Europium-labeled anti-GST respectively) to form the fluorescence resonance energy transfer (FRET) architecture, generating a stable time-resolved FRET signal. The FRET complex was disrupted in a competitive manner by non-biotinylated PIP3, a product formed in the PI3 Kinase assay.
PI3 Kinase α, β, γ and δ activity was assayed using the PI3 Kinase HTRF® assay kit (catalogue No. 33-016) purchased from Millipore Corporation. Purified recombinant PI3Kα (catalogue No. 14-602-K), PI3Kβ (catalogue No. 14-603-K), PI3Kγ (catalogue No. 14-558-K) and PI3Kδ (catalogue No. 14-604-K) were obtained from Millipore Corporation. Purified recombinant PI3K enzyme was used to catalyze the phosphorylation of phosphatidylinositol 4,5-bisphosphate (PIP2 at 10 μM) to phosphatidylinositol 3,4,5-trisphosphate (PIP3) in the presence of 10 μM ATP. The assay was carried out in 384-well format and detected using a Perkin Elmer EnVision Xcite Multilabel Reader. Emission ratios were converted into percent inhibitions and imported into GraphPad Prism software. The concentration necessary to achieve inhibition of enzyme activity by 50% (IC50) was calculated using concentrations ranging from 20 μM to 0.1 nM (12-point curve). IC50 values were determined using a nonlinear regression model available in GraphPad Prism 5. […]

[3] = ranges less than 100 nM and between 100 nM and 1 μM (given as 100-1000)

Row | IC50 [1] [nM] | IC50 [2, 3] [nM] | IC50 (PI3Kα) [nM] | IC50 ([2]; range between 1 μM and 10 μM) [nM] | IC50 (PI3Kβ) [nM] | Compound | EC50 (Balb/c splenic B cells) [nM]
1 | < 100 | 100 to 1000 |  |  |  | COc1cc(-c2cccc3cc(CNc4nc(N)ncc4C#N)n(-c4ccccc4)c(=O)c23)ccn1 [Compound 242] | 
2 | < 100 | < 100 |  |  |  | C[C@H](Nc1nc(N)ncc1-c1ccoc1)c1cc2cccc(Cl)c2c(=O)n1-c1ccccc1 [Compound 379] | 
3 | < 100 | < 100 |  |  |  | C=CS(=O)(=O)Nc1cccc(-c2cnc(N)nc2N[C@@H](C)c2cc3cccc(Cl)c3c(=O)n2-c2ccccc2)c1 [Compound 415] | 
4 | < 100 | 100 to 1000 |  |  |  | C[C@H](Nc1nc(N)ncc1-c1cncs1)c1cc2cccc(-c3ccc(=O)n(C)c3)c2c(=O)n1-c1ccccc1 [Compound 387] | 
5 | < 100 | < 100 |  |  |  | C[C@H](Nc1nc(N)ncc1-c1cccc(S(=O)(=O)N2CCCC2)c1)c1cc2cccc(Cl)c2c(=O)n1-c1ccccc1 [Compound 419] | 
6 | < 100 | < 100 |  |  |  | C[C@H](Nc1nc(N)ncc1-c1cccc(S(=O)(=O)N2CCCCC2)c1)c1cc2cccc(Cl)c2c(=O)n1-c1ccccc1 [Compound 157] | 
7 |  | < 100 |  |  |  | C[C@H](Nc1nc(N)ncc1C#N)c1cc2cccc(Cl)c2c(=O)n1C [Compound 276] | 
8 | < 100 | 100 to 1000 |  |  |  | C[C@H](Nc1nc(N)ncc1C#N)c1cc2cccc(Cl)c2c(=O)n1-c1cc(F)cc(F)c1 [Compound 273] | 
9 | < 100 | 100 to 1000 |  |  |  | C[C@H](Nc1ncnc(N)c1C#N)c1cc2cccc(Cl)c2c(=O)n1-c1ccon1 [Compound 335] | 
10 | < 100 | < 100 |  |  |  | CC(=O)c1cnc(N)nc1N[C@@H](C)c1cc2cccc(Cl)c2c(=O)n1-c1ccccc1 [Compound 394] | 
11 |  |  | 1000 to 10000 |  | 1000 to 10000 | C[C@H](Nc1nc(N)ncc1C#N)c1cc2cccc(Cl)c2c(=O)n1C1CCCCC1 [Compound 300] | < 100
12 |  |  | 1000 to 10000 |  | 1000 to 10000 | C[C@H](Nc1nc(N)ncc1C#N)c1cc2ccccc2c(=O)n1-c1ccccc1 [Compound 125] | < 100
13 |  |  | 1000 to 10000 |  | 1000 to 10000 | C[C@H](Nc1nc(N)ncc1C#N)c1cc2cccc(-c3cncc(F)c3)c2c(=O)n1-c1ccccc1 [Compound 98] | < 100

Further lines, the compound ahead of its results:

Row | Compound | IC50 [1] [nM] | IC50 [2, 3] [nM] | IC50 (PI3Kα) [nM] | IC50 ([2]; range between 1 μM and 10 μM) [nM] | IC50 (PI3Kβ) [nM] | EC50 (Balb/c splenic B cells) [nM]
14 | COc1ncc(-c2cccc3cc([C@H](C)Nc4ncnc(N)c4C#N)n(-c4ccccc4)c(=O)c23)cn1 [Compound 356] | < 100 | 100 to 1000 |  |  |  | 
15 | C[C@H](Nc1nc(N)ncc1C#N)c1cc2cccc(-c3cccc(NS(=O)(=O)N(C)C)c3)c2c(=O)n1-c1ccccc1 [Compound 127] |  | < 100 | 1000 to 10000 |  |  | 
16 | Cc1ncc(-c2cccc3cc([C@H](C)Nc4ncnc(N)c4C#N)n(-c4ccon4)c(=O)c23)cn1 [Compound 336] | < 100 |  |  | 1000 to 10000 |  | 
17 | C[C@H](Nc1nc(N)ncc1-c1cccc(S(=O)(=O)N(C)C)c1)c1cc2cccc(Cl)c2c(=O)n1-c1ccccc1 [Compound 413] | < 100 | < 100 |  |  |  | 
18 | CC(C)OC(=O)c1cccc(-n2c([C@H](C)Nc3nc(N)ncc3C#N)cc3cccc(Cl)c3c2=O)c1 [Compound 312] | < 100 | 100 to 1000 |  |  |  | 
19 | C[C@H](Nc1nc(N)ncc1C#N)c1cc2cccc(-c3cccc(S(N)(=O)=O)c3)c2c(=O)n1-c1ccccc1 [Compound 102] |  |  | 1000 to 10000 |  | 1000 to 10000 | < 100
20 | C[C@H](Nc1nc(N)ncc1-c1nccs1)c1cc2cccc(Cl)c2c(=O)n1-c1ccccc1 [Compound 224] |  |  | 1000 to 10000 |  | 1000 to 10000 | < 100
21 | C[C@H](Nc1nc(N)ncc1C#N)c1cc2cccc(-c3ccc(NS(C)(=O)=O)cc3)c2c(=O)n1-c1ccccc1 [Compound 167] |  |  | 1000 to 10000 |  | 1000 to 10000 | < 100
22 | C[C@H](Nc1nc(N)ncc1C#N)c1cc2cccc(-c3cncc(S(C)(=O)=O)c3)c2c(=O)n1-c1ccccc1 [Compound 189] |  |  | 1000 to 10000 |  | 1000 to 10000 | < 100
23 | COc1ncc(-c2cccc3cc([C@H](C)Nc4nc(N)ncc4C#N)n(C4CC4)c(=O)c23)cn1 [Compound 105] |  |  | 1000 to 10000 |  | 1000 to 10000 | < 100

— US8785470B2, “Heterocyclic compounds and uses thereof” (Infinity Pharmaceuticals, Inc., priority 2011, dated 2014)
